# Test results published in US8980241B2, “Polymerized cyclic nitroxide radical compound and use thereof” (University of Tsukuba, priority 2008, dated 2015).
# What was measured:
# [1] = Test 2: reduction-resistance against glutathione (ESR); assay type: physicochemical; settings: 10 mM glutathione, pH7.2, one hour after colocalization with GSH
# Description: It is known that, in general, while the interior of a cell is a reductive environment with high concentrations (0.5 mM to 10 mM) of glutathione present, on the order of only one over 100 to 1000 of that in the cell is present in blood.
# [2] = Test 3: reduction-resistance against ascorbic acid (ESR); assay type: physicochemical; settings: 3.6 mM AsA, PBS buffer pH 7.4
# From the text: AsA, also referred to as vitamin C, is present in general at high concentrations in blood.
# [3] = tested on: Cerebral ischemia model rat; assay: Test 5 (1): treatment of cerebral ischemia model rat; settings: in vivo
# [4] = Test 4: in-blood retention after vein injection (ESR of blood plasma); settings: in vivo, mouse, injected in the vein
# Description: Each of N-TEMPO-RNP and O-TEMPO-RNP prepared as described above was independently injected in the vein of a different mouse, and after a given time period, laparotomy was performed to carry out blood collection from the heart. After blood collection, centrifugal separation was performed at 6,200 rpm (2000×g) for 10 minutes to obtain blood plasma. When the ESR spectrum of the obtained blood plasma was measured, an ESR signal of each RNP was observed from within the blood. In addition, when the disposition thereof was examined, the half-life was approximately 20 minutes for the former (FIG. 9) and approximately one hour for the latter (FIG. 10).
# [5] = tested on: cerebral ischemia model rats
Compound,decrease in the intensity of the ESR signal [1] [%],half-life (ESR signal) [2] [s],cell death-protection effect in TTC-stained brain [3],cell death in TTC-stained brain ([3]; iv),half-life [4] [s],"average blood pressure at the time of agent administration ([5]; cerebral ischemia model rats, N=20)","neurological symptom score ([5]; score 0-3, N=20)"
"2,2,6,6-tetramethylpiperidino oxy radical [TEMPO]",50,≤ 20,–,–,–,–,–
"CC1(C)CC(O)CC(C)(C)N1[O] [Tempol, 4-hydroxy-2,2,6,6-tetramethylpiperidine-1-oxyl]",–,–,more cell death-protection effect at a given level or greater was obtained than with intravenous administration,more effect than N-TEMPO-RNP was not observed,< 60,decreased significantly,no significant differences
